Test results: US8883782B2, “Spiro-tetracyclic ring compounds as beta-secretase modulators and methods of use” (Amgen Inc., priority 2010, dated 2014)
Where two headings read alike, the source gives them in different places.

Columns and labels:
[1] = biological target: Beta Secretase enzyme (BACE) (Homo sapiens, UniProt P56817); assay: In vitro enzymatic BACE FRET (fluorescence resonance energy transfer) assay; type: biochemical; conditions: average IC50, enzyme assay; read-out: BACE 1 FRET assay
How it was run: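 Cleavage of a 50 nM fluorophore/quencher peptide FRET substrate by BACE for 1 h in 0.05 M acetate pH 4.2, 10% DMSO, 100 uM genapol. Reaction stopped with Tris to neutral pH before fluorescence reading.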

[2] = test system: Aβ40 in conditioned medium of cells stably expressing Amyloid Precursor Protein (APP); assay: In vitro BACE cell-based assay (Aβ40 in conditioned medium, sandwich ELISA); conditions: read-out: HEK cell assay
How it was run: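 Secreted Aβ40 is captured with pAb40 and detected with biotinylated 6E10, read by europium time-resolved fluorescence. IC50 comes from percent inhibition versus concentration.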

[3] = Homo sapiens, HEK293, average IC50, HEK cells
[4] = Homo sapiens, HEK293, average IC50

Beta Secretase enzyme (BACE), sequence (P56817 46-501, species assumed): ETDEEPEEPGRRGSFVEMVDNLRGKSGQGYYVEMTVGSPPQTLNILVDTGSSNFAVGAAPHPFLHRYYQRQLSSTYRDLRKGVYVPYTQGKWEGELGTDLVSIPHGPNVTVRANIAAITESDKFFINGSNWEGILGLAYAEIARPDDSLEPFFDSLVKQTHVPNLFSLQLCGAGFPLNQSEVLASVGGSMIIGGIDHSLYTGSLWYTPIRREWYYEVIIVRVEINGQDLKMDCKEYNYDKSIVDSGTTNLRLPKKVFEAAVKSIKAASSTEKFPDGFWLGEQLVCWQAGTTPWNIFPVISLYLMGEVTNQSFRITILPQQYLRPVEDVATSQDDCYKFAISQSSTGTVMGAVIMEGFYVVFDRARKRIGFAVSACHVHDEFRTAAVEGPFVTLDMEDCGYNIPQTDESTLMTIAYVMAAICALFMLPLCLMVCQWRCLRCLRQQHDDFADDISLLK

Molecule	IC50 [1]	IC50 [2, 3]	IC50 [2, 4]	IC50 ([2]; average IC50)
NC1=N[C@@]2(CO1)c1cc(-c3cccnc3F)ccc1Oc1c(F)cc(N3CC4(CCCOC4)C3)cc12 [Example 856, (4S)-4′-fluoro-7′-(2-fluoro-3-pyridinyl)-2′-(6-oxa-2-azaspiro[3.5]non-2-yl)spiro[1,3-oxazole-4,9′-xanthen]-2-amine]	0.6 nM	4 nM	–	–
NC1=N[C@]2(CO1)c1cc(-c3cccnc3F)ccc1Oc1cc(OC(F)(F)F)c(-c3ccnc(F)c3)cc12 [Example 990, (4R)-7′-(2-fluoro-3-pyridinyl)-2′-(2-fluoro-4-pyridinyl)-3′-(trifluoromethoxy)spiro[1,3-oxazole-4,9′-xanthen]-2-amine]	8220 nM	–	7220 nM	–
CC1(COc2cc(F)c3c(c2)[C@]2(COC(N)=N2)c2cc(-c4cncc(C#N)c4)ccc2O3)COC1 [Example 552, 5-((4S)-2-amino-5′-fluoro-7′-((3-methyl-3-oxetanyl)methoxy)spiro[1,3-oxazole-4,9′-xanthen]-2′-yl)-3-pyridinecarbonitrile]	0.9 nM	3.1 nM	–	–
NC1=N[C@@]2(CO1)c1cc(-c3cccnc3)ccc1Oc1cnc(NCC(F)(F)F)cc12 [Example 404, (5S)-7-(3-pyridinyl)-N~3~-(2,2,2-trifluoroethyl)spiro[chromeno[2,3-c]pyridine-5,4′-[1,3]oxazole]-2′,3-diamine]	31.3 nM	163 nM	–	–
C[C@@](C#Cc1cnc2c(c1)[C@]1(COC(N)=N1)c1cc(-c3cccnc3F)ccc1O2)(CO)CCl [Example 1015, (2R)-4-((5S)-2′-amino-7-(2-fluoro-3-pyridinyl)spiro[chromeno[2,3-b]pyridine-5,4′-[1,3]oxazol]-3-yl)-2-(chloromethyl)-2-methyl-3-butyn-1-ol]	1 nM	–	9 nM	–
CC1(C)C=C(c2cnc3c(c2)[C@]2(COC(N)=N2)c2c(ccc(-c4cccnc4F)c2F)O3)CCO1 [Example 348, (5R)-3-(6,6-dimethyl-3,6-dihydro-2H-pyran-4-yl)-6-fluoro-7-(2-fluoro-3-pyridinyl)spiro[chromeno[2,3-b]pyridine-5,4′-[1,3]oxazol]-2′-amine]	0.8 nM	–	8.8 nM	–
NC1=N[C@@]2(CS1)c1cc(-c3cccnc3F)ccc1Oc1c2cc(C2=CCCOC2)nc1F [Example 1028, (S)-3-(5,6-dihydro-2H-pyran-3-yl)-1-fluoro-7-(2-fluoropyridin-3-yl)-5′H-spiro[chromeno[2,3-c]pyridine-5,4′-thiazol]-2′-amine]	0.2 nM	–	3 nM	–
NC1=N[C@]2(CS1)c1cc(-c3cncnc3)c(F)cc1Oc1c(F)cc(N3CCOCC3)cc12 [Example 887, (4R)-3′,5′-difluoro-7′-(4-morpholinyl)-2′-(5-pyrimidinyl)spiro[1,3-thiazole-4,9′-xanthen]-2-amine]	4740 nM	≥ 10000 nM	–	–
NC1=N[C@@]2(CO1)c1cc(OCc3cccnc3)ccc1Oc1ncc(-c3ccnc(F)c3)cc12 [Example 974, (5S)-3-(2-fluoro-4-pyridinyl)-7-(3-pyridinylmethoxy)spiro[chromeno[2,3-b]pyridine-5,4′-[1,3]oxazol]-2′-amine]	110 nM	–	2720 nM	–
NC1=N[C@]2(CO1)c1cc(-c3cccnc3F)c(F)cc1Oc1c(F)cc(N3CCOCC3)cc12 [Example 870, (4R)-3′,5′-difluoro-2′-(2-fluoro-3-pyridinyl)-7′-(4-morpholinyl)spiro[1,3-oxazole-4,9′-xanthen]-2-amine]	157 nM	6570 nM	–	–
Cc1cc(-c2cc(F)c3c(c2)[C@]2(COC(N)=N2)c2cc(-c4cccnc4F)ccc2O3)cc(=O)o1 [Example 200, 4-((4S)-2-amino-4′-fluoro-7′-(2-fluoro-3-pyridinyl)spiro[1,3-oxazole-4,9′-xanthen]-2′-yl)-6-methyl-2H-pyran-2-one]	0.6 nM	–	8.5 nM	–
(5R)-7-(2,4-difluoro-3-pyridinyl)-3-(2-fluoro-4-pyridinyl)spiro[chromeno[2,3-c]pyridine-5,4′-[1,3]thiazol]-2′-amine, (5S)-7-(2,4-difluoro-3-pyridinyl)-3-(2-fluoro-4-pyridinyl)spiro[chromeno[2,3-c]pyridine-5,4′-[1,3]thiazol]-2′-amine [Example 1019]	0.7 nM	–	–	33 nM
NC1=N[C@]2(CO1)c1cc(-c3cccnc3F)ccc1Oc1nc(F)c(N3CCOCC3)cc12 [Example 904, (5R)-2-fluoro-7-(2-fluoro-3-pyridinyl)-3-(4-morpholinyl)spiro[chromeno[2,3-b]pyridine-5,4′-[1,3]oxazol]-2′-amine]	269 nM	≥ 10000 nM	–	–

The next lines start with results.

IC50 [1]	IC50 [2, 3]	IC50 [2, 4]	Molecule	IC50 ([2]; average IC50)
2.1 nM	10 nM	–	NC1=N[C@@]2(CS1)c1cc(-c3cncnc3)c(F)cc1Oc1c(F)cc(N3CCOCC3)cc12 [Example 888, (4S)-3′,5′-difluoro-7′-(4-morpholinyl)-2′-(5-pyrimidinyl)spiro[1,3-thiazole-4,9′-xanthen]-2-amine]	–
109 nM	435 nM	–	COC(C)(C)C#Cc1cnc2c(c1)[C@@]1(COC(N)=N1)c1cc(-c3cncc(F)c3)c(F)cc1O2 [Example 642, (5R)-8-fluoro-7-(5-fluoro-3-pyridinyl)-3-(3-methoxy-3-methyl-1-butyn-1-yl)spiro[chromeno[2,3-b]pyridine-5,4′-[1,3]oxazol]-2′-amine]	–
0.2 nM	–	11 nM	NC1=N[C@@]2(CS1)c1cc(-c3cccnc3F)ccc1Oc1c2cc(C2=CCCCO2)nc1F [Example 1026, (5S)-3-(3,4-dihydro-2H-pyran-6-yl)-1-fluoro-7-(2-fluoro-3-pyridinyl)spiro[chromeno[2,3-c]pyridine-5,4′-[1,3]thiazol]-2′-amine]	–
21.1 nM	–	442 nM	Cc1ccc(Oc2ccc3c(c2)[C@@]2(COC(N)=N2)c2cc(C4=CCOCC4)cc(F)c2O3)nc1 [Example 1064, (4S)-2′-(3,6-dihydro-2H-pyran-4-yl)-4′-fluoro-7′-((5-methyl-2-pyridinyl)oxy)spiro[1,3-oxazole-4,9′-xanthen]-2-amine]	–
6 nM	–	30.4 nM	NC1=N[C@@]2(CO1)c1cc(-c3ccc(F)nc3)ccc1Oc1c(F)cc(OCC3CCOCC3)cc12 [Example 258, (4S)-4′-fluoro-7′-(6-fluoro-3-pyridinyl)-2′-(tetrahydro-2H-pyran-4-ylmethoxy)spiro[1,3-oxazole-4,9′-xanthen]-2-amine]	–
19.8 nM	118 nM	–	Cc1ncc(-c2cc(F)c3c(c2)[C@]2(COC(N)=N2)c2cc(-c4ccc(F)nc4)ccc2O3)cn1 [Example 649, (4S)-4′-fluoro-7′-(6-fluoro-3-pyridinyl)-2′-(2-methyl-5-pyrimidinyl)spiro[1,3-oxazole-4,9′-xanthen]-2-amine]	–
18 nM	852 nM	–	CC1(C#Cc2cc(F)c3c(c2)C2(COC(N)=N2)c2cc(-c4cncc(F)c4)ncc2O3)COC1 (stereo not drawn) [Example 661, 9-fluoro-3-(5-fluoro-3-pyridinyl)-7-((3-methyl-3-oxetanyl)ethynyl)spiro[chromeno[2,3-c]pyridine-5,4′-[1,3]oxazol]-2′-amine]	–
4830 nM	–	≥ 10000 nM	CC#Cc1cncc(-c2cnc3c(c2)[C@]2(COC(N)=N2)c2cc(OC)ccc2O3)c1 [Example 775, (5S)-7-methoxy-3-(5-(1-propyn-1-yl)-3-pyridinyl)spiro[chromeno[2,3-b]pyridine-5,4′-[1,3]oxazol]-2′-amine]	–
